# Entries after “also recorded” stand apart in the source; their conditions may differ.
# What was measured:
# [1] = Single i.v. dose toxicity with 14-day observation: clinical signs and mortality; assay type: in vivo, Sprague-Dawley rats; details: nicotine 0.75 mg/kg single i.v.
# Procedure: Body weight and food consumption was measured daily for 14 days. On day 15, urine was collected on all surviving animals. The animals were euthanized and bled via cardiac puncture, and blood was collected for analysis. Tissues were collected, weighed, evaluated for gross abnormalities, and stored in 10% neutral-buffered formalin.
# Four aliquots of each dose formulation were collected and stored at −80° C.
# The animals were weighed prior to dosing and received a single i.v. dose via the lateral tail vein of either test compound or vehicle at a volume of 5 mL/kg.
# phosphorylated p65 = experiment: p65 phosphorylation in brain after intracranial TNFα; assay type: in vivo, Wild-type mice (B6/SJL); details: 2 mg/kg i.p., mouse brain, normalized to actin
# Procedure: After 5 minutes, mice were intracranially injected with 0.5 mg of TNFα. Mice were euthanized ten minutes after the intracranial injection. The portion of the brain surrounding the intracranial site of injection was collected, and proteins were extracted. Phosphorylation of p65 was measured with an antibody towards phosphorylated p65.
# [2] = test system: LPS-induced IL-1β release; experiment: LPS-induced IL-1β release in whole human blood; assay type: cell-based
# Procedure: Whole human blood was treated with LPS to stimulate inflammatory responses. […] The inflammatory molecule IL-1β was measured after 16 hours.
# [3] = Case: treatment of patient with autism and seizure disorder; assay type: in vivo, human patient; details: 1.0 mg three times per day
# From the text: A patient, who was diagnosed with autism and a seizure disorder, had brain surgery and began rehabilitation the following month.
Compound,"mortality ([1]; 5 males and 5 females, tartrate)",clinical signs after dosing ([1]; male and female rats),p65 phosphorylation (phosphorylated p65),"IL-1β production over time ([2]; LPS-stimulated human blood, repeated measurement (Example 15))","accumulation of IL-1β ([2]; LPS-treated whole human blood, 16 hours (Example 13))","accumulation of IL-1β over dose response ([2]; LPS-treated whole human blood, 16 hours (Example 14))",cognitive benefits ([3]; from approximately one week),"frequency of seizures ([3]; over 3½ weeks, one patient)"
"CN1CCCC1c1cccnc1.O=C(O)C(O)C(O)C(=O)O (single isomer, unassigned; (-)) [Nicotine, (−) Nicotine hydrogen tartrate, reference compound]",One male and two females died post dose; also recorded: one male animal and 2 females died following test compound administration,experienced tremors upon compound administration but returned to normal within 15-20 minutes post dose,–,–,–,–,–,–
"C1=CCC(c2cccnc2)NC1 (racemic) [Anatabine, 1,2,3,6-tetrahydro-[2,3′]bipyridinyl]",–,–,reduced p65 phosphorylation in mouse brain,rapid and continuous effect on the suppression,reduced accumulation of IL-1β,reduced accumulation of IL-1β,improved communication and language skills and the ability to focus,decreased from one per day to approximately one per week
